Results taken from publication PMC6704710, “Preclinical evaluation of 3D185, a novel potent inhibitor of FGFR1/2/3 and CSF-1R, in FGFR-dependent and macrophage-dominant cancer models” (Journal of Experimental & Clinical Cancer Research : CR, 2019).

Key:
Assay in all cases: Eurofins kinase panel
Type in all cases: biochemical
[1] = target: T1, mTOR/FKBP12(h) (Homo sapiens, UniProt P42345); settings: read-out: Inhibition rate (%)
T1 construct: purchased Eurofins (KinaseProfiler)

[2] = target: T2, CaMKIV(h) (Homo sapiens, UniProt Q16566); settings: read-out: Inhibition rate (%)
T2 construct: purchased Eurofins (KinaseProfiler)
T2 sequence (Q16566 1-473): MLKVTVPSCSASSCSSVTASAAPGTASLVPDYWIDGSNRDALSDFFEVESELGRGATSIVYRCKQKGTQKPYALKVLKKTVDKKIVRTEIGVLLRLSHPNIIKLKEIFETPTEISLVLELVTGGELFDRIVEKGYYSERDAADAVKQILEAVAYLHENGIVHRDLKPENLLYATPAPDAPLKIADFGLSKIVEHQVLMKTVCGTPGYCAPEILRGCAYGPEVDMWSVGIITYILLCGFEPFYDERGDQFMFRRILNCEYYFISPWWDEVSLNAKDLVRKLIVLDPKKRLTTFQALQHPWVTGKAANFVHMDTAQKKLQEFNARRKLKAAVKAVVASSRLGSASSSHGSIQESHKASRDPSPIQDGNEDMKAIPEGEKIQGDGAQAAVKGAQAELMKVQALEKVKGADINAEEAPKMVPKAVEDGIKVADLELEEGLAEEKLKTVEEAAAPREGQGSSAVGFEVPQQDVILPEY

[3] = target: T3, MYO3B(h) (Homo sapiens, UniProt Q8WXR4); settings: read-out: Inhibition rate (%)
T3 construct: purchased Eurofins (KinaseProfiler)
T3 sequence (Q8WXR4 1-1341): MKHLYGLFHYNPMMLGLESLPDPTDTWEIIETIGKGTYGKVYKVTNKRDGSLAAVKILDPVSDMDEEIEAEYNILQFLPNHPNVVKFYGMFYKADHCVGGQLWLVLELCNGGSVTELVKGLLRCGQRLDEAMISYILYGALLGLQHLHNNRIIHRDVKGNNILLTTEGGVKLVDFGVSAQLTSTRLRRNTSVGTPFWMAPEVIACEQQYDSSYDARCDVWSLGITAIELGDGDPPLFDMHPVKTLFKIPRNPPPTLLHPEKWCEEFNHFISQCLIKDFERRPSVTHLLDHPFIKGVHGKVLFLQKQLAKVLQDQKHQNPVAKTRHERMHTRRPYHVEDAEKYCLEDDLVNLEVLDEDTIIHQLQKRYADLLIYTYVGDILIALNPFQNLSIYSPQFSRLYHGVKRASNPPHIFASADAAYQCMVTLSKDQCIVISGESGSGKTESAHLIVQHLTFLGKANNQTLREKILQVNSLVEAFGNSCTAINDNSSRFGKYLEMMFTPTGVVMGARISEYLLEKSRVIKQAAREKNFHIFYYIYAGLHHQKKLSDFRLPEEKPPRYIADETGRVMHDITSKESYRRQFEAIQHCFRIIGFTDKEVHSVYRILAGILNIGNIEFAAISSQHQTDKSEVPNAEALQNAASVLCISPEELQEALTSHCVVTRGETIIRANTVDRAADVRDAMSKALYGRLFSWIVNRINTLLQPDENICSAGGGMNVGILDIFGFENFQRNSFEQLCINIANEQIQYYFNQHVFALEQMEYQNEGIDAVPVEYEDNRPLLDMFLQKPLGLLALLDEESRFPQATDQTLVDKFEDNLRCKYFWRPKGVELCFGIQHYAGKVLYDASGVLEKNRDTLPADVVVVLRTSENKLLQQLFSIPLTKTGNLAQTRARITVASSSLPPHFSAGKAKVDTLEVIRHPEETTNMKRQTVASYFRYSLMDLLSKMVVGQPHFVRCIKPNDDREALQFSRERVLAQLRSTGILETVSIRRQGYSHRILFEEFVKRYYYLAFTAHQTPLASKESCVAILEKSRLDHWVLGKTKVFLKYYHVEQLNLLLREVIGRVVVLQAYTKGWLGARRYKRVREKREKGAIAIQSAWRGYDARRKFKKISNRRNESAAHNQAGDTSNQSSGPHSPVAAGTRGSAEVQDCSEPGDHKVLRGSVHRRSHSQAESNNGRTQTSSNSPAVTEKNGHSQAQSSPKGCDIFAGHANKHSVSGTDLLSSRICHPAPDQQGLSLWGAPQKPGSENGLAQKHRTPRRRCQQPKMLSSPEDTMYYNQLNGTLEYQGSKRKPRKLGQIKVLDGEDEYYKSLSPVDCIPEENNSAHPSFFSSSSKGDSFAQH

[4] = tested on: ROCK-II(r)
[5] = target: T4, SIK(h) (Homo sapiens, UniProt P57059); settings: read-out: Inhibition rate (%)
T4 construct: purchased Eurofins (KinaseProfiler)

[6] = target: T5, KDR(h) (Homo sapiens, UniProt P35968); settings: read-out: Inhibition rate (%)
T5 construct: purchased Eurofins (KinaseProfiler)

[7] = target: T6, MOK(h) (Homo sapiens, UniProt Q9UQ07); settings: read-out: Inhibition rate (%)
T6 construct: purchased Eurofins (KinaseProfiler)
T6 sequence (Q9UQ07 1-419): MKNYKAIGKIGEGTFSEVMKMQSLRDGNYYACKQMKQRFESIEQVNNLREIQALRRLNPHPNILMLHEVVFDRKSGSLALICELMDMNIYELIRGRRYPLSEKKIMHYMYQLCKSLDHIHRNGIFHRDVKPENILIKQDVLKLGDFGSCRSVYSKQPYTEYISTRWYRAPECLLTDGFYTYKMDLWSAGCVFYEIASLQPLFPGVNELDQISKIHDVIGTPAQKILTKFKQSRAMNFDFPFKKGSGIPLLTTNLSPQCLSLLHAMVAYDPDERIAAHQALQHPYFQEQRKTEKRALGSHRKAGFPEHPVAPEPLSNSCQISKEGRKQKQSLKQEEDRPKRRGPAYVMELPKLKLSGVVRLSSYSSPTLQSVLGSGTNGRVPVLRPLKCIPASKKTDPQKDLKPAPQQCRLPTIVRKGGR

T5 sequence (P35968 20-1356): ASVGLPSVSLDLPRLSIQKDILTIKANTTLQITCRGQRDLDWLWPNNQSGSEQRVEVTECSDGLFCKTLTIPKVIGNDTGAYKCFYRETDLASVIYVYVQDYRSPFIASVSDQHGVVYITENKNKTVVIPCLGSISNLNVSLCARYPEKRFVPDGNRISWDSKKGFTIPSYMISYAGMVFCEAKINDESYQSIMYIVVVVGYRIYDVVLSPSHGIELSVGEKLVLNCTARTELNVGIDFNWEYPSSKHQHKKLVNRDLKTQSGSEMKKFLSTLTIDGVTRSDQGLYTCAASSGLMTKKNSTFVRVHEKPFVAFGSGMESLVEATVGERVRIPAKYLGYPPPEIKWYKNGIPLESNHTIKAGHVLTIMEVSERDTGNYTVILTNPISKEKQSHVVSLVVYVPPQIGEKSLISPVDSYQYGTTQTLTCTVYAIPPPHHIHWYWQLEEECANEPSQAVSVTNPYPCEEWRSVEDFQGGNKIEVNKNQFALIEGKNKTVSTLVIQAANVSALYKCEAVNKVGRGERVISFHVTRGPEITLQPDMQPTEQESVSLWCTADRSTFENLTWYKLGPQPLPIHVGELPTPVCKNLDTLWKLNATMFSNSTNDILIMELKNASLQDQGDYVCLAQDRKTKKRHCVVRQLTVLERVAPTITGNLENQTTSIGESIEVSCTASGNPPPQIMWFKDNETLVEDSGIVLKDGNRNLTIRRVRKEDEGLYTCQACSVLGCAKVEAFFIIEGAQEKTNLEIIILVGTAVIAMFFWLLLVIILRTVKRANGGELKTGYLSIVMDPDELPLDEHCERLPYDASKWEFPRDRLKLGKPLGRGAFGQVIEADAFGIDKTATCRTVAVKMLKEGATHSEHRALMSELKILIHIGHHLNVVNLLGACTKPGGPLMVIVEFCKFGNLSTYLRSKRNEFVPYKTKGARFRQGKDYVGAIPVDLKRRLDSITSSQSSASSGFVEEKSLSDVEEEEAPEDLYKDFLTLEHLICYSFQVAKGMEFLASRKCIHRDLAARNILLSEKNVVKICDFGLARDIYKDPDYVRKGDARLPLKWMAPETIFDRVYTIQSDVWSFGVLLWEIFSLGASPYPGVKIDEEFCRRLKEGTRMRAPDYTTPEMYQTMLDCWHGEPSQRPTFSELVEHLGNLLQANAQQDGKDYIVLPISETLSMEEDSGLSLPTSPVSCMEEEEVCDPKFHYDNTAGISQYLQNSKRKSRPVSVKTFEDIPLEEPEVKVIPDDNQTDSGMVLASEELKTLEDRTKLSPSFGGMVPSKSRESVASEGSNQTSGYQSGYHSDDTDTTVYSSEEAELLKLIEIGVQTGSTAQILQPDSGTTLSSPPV
T4 sequence (P57059 whole entry): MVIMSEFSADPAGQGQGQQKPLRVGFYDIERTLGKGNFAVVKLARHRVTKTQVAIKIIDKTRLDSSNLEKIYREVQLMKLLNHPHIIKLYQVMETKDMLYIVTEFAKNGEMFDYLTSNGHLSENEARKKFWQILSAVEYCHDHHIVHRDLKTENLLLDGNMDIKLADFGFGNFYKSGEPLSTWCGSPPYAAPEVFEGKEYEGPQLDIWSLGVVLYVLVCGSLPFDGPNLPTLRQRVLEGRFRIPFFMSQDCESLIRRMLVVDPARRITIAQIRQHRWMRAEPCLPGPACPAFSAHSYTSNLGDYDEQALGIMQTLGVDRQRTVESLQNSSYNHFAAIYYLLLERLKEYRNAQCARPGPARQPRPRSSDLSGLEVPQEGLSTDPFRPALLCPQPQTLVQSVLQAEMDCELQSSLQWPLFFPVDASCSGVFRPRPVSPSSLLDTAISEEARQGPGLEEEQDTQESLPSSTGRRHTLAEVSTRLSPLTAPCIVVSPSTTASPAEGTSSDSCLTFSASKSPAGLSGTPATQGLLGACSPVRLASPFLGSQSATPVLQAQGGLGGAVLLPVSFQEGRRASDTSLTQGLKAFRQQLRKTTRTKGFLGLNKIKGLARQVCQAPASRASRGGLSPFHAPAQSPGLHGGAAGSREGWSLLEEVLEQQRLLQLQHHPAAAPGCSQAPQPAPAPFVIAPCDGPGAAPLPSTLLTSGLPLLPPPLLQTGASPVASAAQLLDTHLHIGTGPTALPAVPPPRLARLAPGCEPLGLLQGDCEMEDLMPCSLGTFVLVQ
T1 sequence (P42345 1362-2549 limits assumed): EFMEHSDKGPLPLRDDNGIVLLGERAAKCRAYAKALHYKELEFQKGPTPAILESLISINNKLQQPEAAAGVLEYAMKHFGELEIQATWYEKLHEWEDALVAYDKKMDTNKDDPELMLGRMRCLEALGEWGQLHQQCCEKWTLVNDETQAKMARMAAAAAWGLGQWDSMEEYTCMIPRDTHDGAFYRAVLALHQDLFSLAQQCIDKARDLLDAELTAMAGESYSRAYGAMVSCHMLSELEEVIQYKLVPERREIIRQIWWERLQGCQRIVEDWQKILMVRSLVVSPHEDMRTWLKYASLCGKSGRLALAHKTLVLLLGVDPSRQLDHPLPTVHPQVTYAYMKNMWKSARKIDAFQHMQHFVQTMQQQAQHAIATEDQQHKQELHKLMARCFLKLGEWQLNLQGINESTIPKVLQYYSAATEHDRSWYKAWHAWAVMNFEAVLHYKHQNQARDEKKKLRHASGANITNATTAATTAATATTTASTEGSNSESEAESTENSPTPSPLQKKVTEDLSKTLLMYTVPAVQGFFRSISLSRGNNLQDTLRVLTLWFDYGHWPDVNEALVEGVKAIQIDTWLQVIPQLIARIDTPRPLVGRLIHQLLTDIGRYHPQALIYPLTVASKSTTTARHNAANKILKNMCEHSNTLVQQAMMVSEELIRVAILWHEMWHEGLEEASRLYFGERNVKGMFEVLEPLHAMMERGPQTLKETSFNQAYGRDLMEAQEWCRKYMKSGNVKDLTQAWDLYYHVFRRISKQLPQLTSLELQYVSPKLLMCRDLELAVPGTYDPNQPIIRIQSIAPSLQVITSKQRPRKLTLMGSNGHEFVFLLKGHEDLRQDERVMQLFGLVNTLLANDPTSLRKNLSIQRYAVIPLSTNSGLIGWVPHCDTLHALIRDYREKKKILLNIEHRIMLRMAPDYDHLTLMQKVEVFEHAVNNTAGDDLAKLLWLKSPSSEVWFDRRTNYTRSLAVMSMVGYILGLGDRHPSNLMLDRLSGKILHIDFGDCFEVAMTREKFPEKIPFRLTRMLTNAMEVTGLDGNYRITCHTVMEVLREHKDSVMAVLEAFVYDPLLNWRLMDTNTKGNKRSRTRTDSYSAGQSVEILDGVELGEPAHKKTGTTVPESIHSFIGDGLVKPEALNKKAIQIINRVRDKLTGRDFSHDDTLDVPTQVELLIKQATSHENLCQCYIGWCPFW

## COc1cc(OC)c(Cl)c(-c2ccc3c(NC(=O)c4ccc(N5CCNC(C)(C)C5)cc4)n[nH]c3n2)c1Cl [3D185]
[1]; 10 nM
  inhibition at 0.01 µM: 1%
[1]; 100 nM
  inhibition at 0.1 µM: 0%
[1]; 1000 nM
  inhibition at 1 µM: 2%
[2]; 10 nM
  inhibition at 0.01 µM: -6%
[2]; 100 nM
  inhibition at 0.1 µM: -21%
[2]; 1000 nM
  inhibition at 1 µM: -22%
[3]; 10 nM
  inhibition at 0.01 µM: -4%
[3]; 100 nM
  inhibition at 0.1 µM: 0%
[3]; 1000 nM
  inhibition at 1 µM: 7%
[4]; 10 nM
  Inhibition rate (%): -3%
[4]; 100 nM
  Inhibition rate (%): 0%
[4]; 1000 nM
  Inhibition rate (%): -1%
[5]; 10 nM
  inhibition at 0.01 µM: 4%
[5]; 100 nM
  inhibition at 0.1 µM: -17%
[5]; 1000 nM
  inhibition at 1 µM: -5%
[6]; 10 nM
  inhibition at 0.01 µM: -2%
[6]; 100 nM
  inhibition at 0.1 µM: 1%
[6]; 1000 nM
  inhibition at 1 µM: 10%
[7]; 10 nM
  inhibition at 0.01 µM: -7%
[7]; 100 nM
  inhibition at 0.1 µM: 6%
[7]; 1000 nM
  inhibition at 1 µM: 1%
